# Data published in patent US10441663B2, “Methods for treating cancer” (Bicycle Therapeutics Limited, priority 2016, dated 2019).
# *1 amine or outer side, *2 acyl side, *3 side chain or, on linkers, in order; H or OH if unused. Where a SMILES comes first, the peptide text is derived from it. Bridges are numbered along the chain shown (N, C = ends). [ ]: non-standard residue; d: D form. The star is where a group is joined. X1 = COc1cc2cc(c1Cl)N(C)C(=O)C[C@H](OC(=O)[C@H](C)N(C)C(=O)CCSSC(C)CCC(=O)*)[C@]1(C)O[C@H]1[C@H](C)[C@@H]1C[C@@](O)(NC(=O)O1)[C@H](OC)/C=C/C=C(\C)C2; 1Nal = N[C@@H](Cc1cccc2ccccc12)C(=O)O; TBMB = c1c(C[*:1])cc(C[*:3])cc1C[*:2]; Tle = CC(C)(C)[C@H](N)C(=O)O; βAla = NCCC(=O)O; Sar = CNCC(=O)O
# Tested on: 3LL syngeneic model
# Experiment: In vivo efficacy of BT1718 in 3LL syngeneic model (Example 9)
# Design: species or system Mus Musculus
# Method: The objective of this study was to evaluate the in vivo anti-tumor efficacy of BT1718 in the treatment of the subcutaneous 3LL syngeneic model in C57BL/6 mice.
# The 3LL tumor cells were maintained in vitro as a monolayer culture in medium supplemented with 10% heat inactivated fetal bovine serum at 37° C. in an atmosphere of 5% CO2 in air. The tumor cells were routinely subcultured twice weekly by trypsin-EDTA treatment. The cells growing in an exponential growth phase were harvested and counted for tumor inoculation.
# Each mouse was inoculated subcutaneously at the right flank with 3LL tumor cells (1×106) in 0.1 ml of PBS for tumor development. The animals were randomized and treatment was started when the average tumor volume reaches approximately 105 mm^3 for the efficacy study. The test article administration and the animal numbers in each group were shown in the experimental design table (Table 48).
# All the procedures related to animal handling, care and the treatment in the study were performed according to the guidelines of the Association for Assessment and Accreditation of Laboratory Animal Care (AAALAC). At the time of routine monitoring, the animals were daily checked for any effects of tumor growth and treatments on normal behavior such as mobility, food and water consumption (by looking only), body weight gain/loss (body weights were measured every day), eye/hair matting and any other abnormal effect as stated in the protocol. Death and observed clinical signs were recorded on the basis of the numbers of animals within each subset.
# The major endpoint was to see if the tumor growth could be delayed or mice could be cured. Tumor size was measured three times weekly in two dimensions using a caliper, and the volume was expressed in mm^3 using the formula: V=0.5 a×b2 where a and b are the long and short diameters of the tumor, respectively. The tumor size was then used for calculations of T/C value. The T/C value (in percent) is an indication of antitumor effectiveness; T and C are the mean volumes of the treated and control groups, respectively, on a given day.
# TGI was calculated for each group using the formula: TGI (%)=[1−(Ti−T0)/(Vi−V0)]×100; Ti is the average tumor volume of a treatment group on a given day, T0 is the average tumor volume of the treatment group on the day of treatment start, Vi is the average tumor volume of the vehicle control group on the same day with Ti, and V0 is the average tumor volume of the vehicle group on the day of treatment start.
# Summary statistics, including mean and the standard error of the mean (SEM), are provided for the tumor volume of each group at each time point.
# Statistical analysis of difference in tumor volume among the groups was conducted on the data obtained at the best therapeutic time point after the final dose.
# A one-way ANOVA was performed to compare tumor volume among groups, and when a significant F-statistics (a ratio of treatment variance to the error variance) was obtained, comparisons between groups were carried out with Games-Howell test. All data were analyzed using Prism. P<0.05 was considered to be statistically significant.
smiles,measurement,setting,value
COc1cc2cc(c1Cl)N(C)C(=O)C[C@H](OC(=O)[C@H](C)N(C)C(=O)CCSSC(C)CCC(=O)NCCC(=O)N(C)CC(=O)N(C)CC(=O)N(C)CC(=O)N(C)CC(=O)N(C)CC(=O)N(C)CC(=O)N(C)CC(=O)N(C)CC(=O)N(C)CC(=O)N(C)CC(=O)N[C@@H](C)C(=O)N[C@H]1CSCc3cc4cc(c3)CSC[C@H](NC(=O)[C@@H](C)NC(=O)[C@H](Cc3cccc5ccccc35)NC(=O)[C@H](CCC(=O)O)NC(=O)[C@H](CC(N)=O)NC(=O)[C@@H](C)NC1=O)C(=O)N[C@@H](CCC(=O)O)C(=O)N[C@@H](CC(=O)O)C(=O)N[C@@H](Cc1ccccc1)C(=O)N[C@@H](Cc1ccc(O)cc1)C(=O)N[C@@H](CC(=O)O)C(=O)N[C@@H](C(C)(C)C)C(=O)N[C@H](C(N)=O)CSC4)[C@]1(C)O[C@H]1[C@H](C)[C@@H]1C[C@@](O)(NC(=O)O1)[C@H](OC)/C=C/C=C(\C)C2 (stereo partly shown) [BT1718] ({X1-βAla}-[Sar][Sar][Sar][Sar][Sar][Sar][Sar][Sar][Sar][Sar]AC[dA]NE[1Nal][dA]CEDFYD[Tle]C-NH2; linker 12-18-25 via TBMB (inferred)),TGI,"1 mg/kg, day 14",104.9%
same,Tumor Volume,"1 mg/kg, day 14",2649 mm^3
same,TGI,"3 mg/kg, day 14",69.9%
same,Tumor Volume,"3 mg/kg, day 14",1764 mm^3
same,TGI,"10 mg/kg, day 14",89.9
same,Tumor Volume,"10 mg/kg, day 14",350 mm^3
same,tumor volume trace over time,"1 mpk biw, day 0",106 ± 10 mm^3
same,tumor volume trace over time,"1 mpk biw, day 2",239 ± 47 mm^3
same,tumor volume trace over time,"1 mpk biw, day 4",405 ± 98 mm^3
same,tumor volume trace over time,"1 mpk biw, day 7",765 ± 190 mm^3
same,tumor volume trace over time,"1 mpk biw, day 9",1120 ± 267 mm^3
same,tumor volume trace over time,"1 mpk biw, day 11",1568 ± 392 mm^3
same,T/C,"1 mpk biw, day 14",104.9%
same,TGI,"1 mpk biw, day 14",−5.1%
same,tumor volume trace over time,"1 mpk biw, day 14",2649 ± 553 mm^3
same,Tumor Volume,"1 mpk, biw, day 14, Mean ± SEM",2649 ± 553 mm^3
same,tumor volume trace over time,"3 mpk biw, day 0",105 ± 9 mm^3
same,tumor volume trace over time,"3 mpk biw, day 2",234 ± 48 mm^3
same,tumor volume trace over time,"3 mpk biw, day 4",423 ± 86 mm^3
same,tumor volume trace over time,"3 mpk biw, day 7",706 ± 152 mm^3
same,tumor volume trace over time,"3 mpk biw, day 9",991 ± 245 mm^3
same,tumor volume trace over time,"3 mpk biw, day 11",1149 ± 313 mm^3
same,T/C,"3 mpk biw, day 14",69.9%
same,TGI,"3 mpk biw, day 14",31.4%
same,tumor volume trace over time,"3 mpk biw, day 14",1764 ± 471 mm^3
same,Tumor Volume,"3 mpk, biw, day 14, Mean ± SEM",1764 ± 471 mm^3
same,tumor volume trace over time,"10 mpk biw, day 0",106 ± 8 mm^3
same,tumor volume trace over time,"10 mpk biw, day 2",181 ± 21 mm^3
same,tumor volume trace over time,"10 mpk biw, day 4",272 ± 38 mm^3
same,tumor volume trace over time,"10 mpk biw, day 7",339 ± 86 mm^3
same,tumor volume trace over time,"10 mpk biw, day 9",321 ± 85 mm^3
same,tumor volume trace over time,"10 mpk biw, day 11",343 ± 92 mm^3
same,T/C,"10 mpk biw, day 14",13.8%
same,TGI,"10 mpk biw, day 14",89.9%
same,tumor volume trace over time,"10 mpk biw, day 14",350 ± 105 mm^3
same,Tumor Volume,"10 mpk, biw, day 14, Mean ± SEM",350 ± 105 mm^3
same,body weight effect,all mice,maintained their bodyweight well
